The test system of assay [1] is SARS-CoV-2 NIV2020-770 (D614G variant). It counts as cell-based. Particulars: read-out: IC50, antiviral effect on SARS-CoV-2 NIV2020-770 (D614G variant).
The test system of assay [2] is SARS-CoV-2 Delta (B.617.2 variant). Description: microbe, parasite or virus in culture. It counts as cell-based. Particulars: Severe acute respiratory syndrome coronavirus 2, read-out: IC50, antiviral effect on SARS-CoV-2 Delta (B.617.2 variant).

Where only a bound is given, the exact number is not on record here.

Take `O=c1cc(OCCOc2ccnc(SCc3ccc(F)cc3)n2)c2ccccc2o1` [5a, 4-(2-((2-((4-Fluorobenzyl)thio)pyrimidin-4-yl)oxy)ethoxy)-2H-chromen-2-one]: the IC50 in assay [1] is less than 50 µM; in assay [2] it was less than 25 µM.
For the compound `Cc1cccc(CSc2nccc(OCCCOc3cc(=O)oc4ccc(F)cc34)n2)c1` [5h, 6-Fluoro-4-(3-((2-((3-methylbenzyl)thio)pyrimidin-4-yl)oxy)propoxy)-2H-chromen-2-one], the IC50 is less than 2.5 µM in assay [1] and less than 10 µM in assay [2].
Regarding `O=c1cc(OCCOc2ccnc(SCc3ccc(F)cc3)n2)c2cc(F)ccc2o1` [5c, 6-Fluoro-4-(2-((2-((4-fluorobenzyl)thio)pyrimidin-4-yl)oxy)ethoxy)-2H-chromen-2-one], the IC50 is less than 2.5 µM in assay [1] and less than 10 µM in assay [2].
In the case of `O=c1cc(OCCCOc2ccnc(SCc3ccc(F)cc3)n2)c2cc(F)ccc2o1` [5d, 6-Fluoro-4-(3-((2-((4-fluorobenzyl)thio)pyrimidin-4-yl)oxy)propoxy)-2H-chromen-2-one], the IC50 in assay [1] and in assay [2] was less than 10 µM in each case.
With `O=c1cc(OCCCOc2ccnc(SCc3ccc(F)cc3)n2)c2ccccc2o1` [5b, 4-(3-((2-((4-Fluorobenzyl)thio)pyrimidin-4-yl)oxy)propoxy)-2H-chromen-2-one], the results for the IC50 in assay [1] and in assay [2] were less than 10 µM and less than 2.5 µM, respectively.
In the case of `Cc1cccc(CSc2nccc(OCCCOc3cc(=O)oc4ccccc34)n2)c1` [5f, 4-(3-((2-((3-Methylbenzyl)thio)pyrimidin-4-yl)oxy)propoxy)-2H-chromen-2-one], the IC50 was less than 25 µM in assay [1] and less than 2.5 µM in assay [2].
Turning to `Cc1cccc(CSc2nccc(OCCOc3cc(=O)oc4ccc(F)cc34)n2)c1` [5g, 6-Fluoro-4-(2-((2-((3-methylbenzyl)thio)pyrimidin-4-yl)oxy)ethoxy)-2H-chromen-2-one], the IC50 in assay [1] is less than 25 µM; in assay [2] it was less than 10 µM.
Consider `Cc1cccc(CSc2nccc(OCCOc3cc(=O)oc4ccccc34)n2)c1` [5e, 4-(2-((2-((3-Methylbenzyl)thio)pyrimidin-4-yl)oxy)ethoxy)-2H-chromen-2-one], for which the results for the IC50 in assay [1] and in assay [2] were less than 25 µM and less than 10 µM, respectively.
In the case of `O=c1cc(OCCOc2ccnc(SCc3ccc(Cl)cc3)n2)c2ccccc2o1` [5i, 4-(2-((2-((4-Chlorobenzyl)thio)pyrimidin-4-yl)oxy)ethoxy)-2H-chromen-2-one], the IC50 in assay [1] is less than 10 µM; in assay [2] it was less than 2.5 µM.

For the origin of these results see PMC10398856 (ACS Omega, 2023).
